{"source": "patent US20080267948A1", "about": "“Croos-B Structure Binding Compounds” (priority 2005, published 2008)", "key": {"factor XII": {"biological_target": "T1, factor XII (Homo sapiens, UniProt P00748)", "T1 sequence (P00748 20-615)": "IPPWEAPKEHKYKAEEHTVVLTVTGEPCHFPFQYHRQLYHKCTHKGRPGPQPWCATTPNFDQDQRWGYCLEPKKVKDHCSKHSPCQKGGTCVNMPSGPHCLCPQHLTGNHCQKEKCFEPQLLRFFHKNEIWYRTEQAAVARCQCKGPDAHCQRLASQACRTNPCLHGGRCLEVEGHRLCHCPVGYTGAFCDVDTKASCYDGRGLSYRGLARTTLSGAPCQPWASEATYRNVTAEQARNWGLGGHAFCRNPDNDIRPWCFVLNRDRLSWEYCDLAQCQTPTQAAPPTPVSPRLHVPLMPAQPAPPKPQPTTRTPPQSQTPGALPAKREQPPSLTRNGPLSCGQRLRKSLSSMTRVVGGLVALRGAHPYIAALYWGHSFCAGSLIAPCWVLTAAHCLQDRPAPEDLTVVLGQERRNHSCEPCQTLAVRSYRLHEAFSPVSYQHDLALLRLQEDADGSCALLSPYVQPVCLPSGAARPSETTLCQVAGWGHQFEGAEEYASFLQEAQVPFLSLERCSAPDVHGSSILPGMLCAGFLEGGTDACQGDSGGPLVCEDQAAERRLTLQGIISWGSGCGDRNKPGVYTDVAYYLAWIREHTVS", "assay": "Factor XII activation assay (chromogenic, prekallikrein, Chromozyme-PK)", "format": "biochemical", "set-up": "purchased Calbiochem", "details": "for activation of factor XII by compound alone: without protein cofactor, ellagic acid 50 μg/ml", "procedure": "For this purpose, in a reaction volume of 60 μl the following components were mixed: 10 μl of 300 μg/ml ellagic acid solution or control buffer, 10 μl of 750 μg/ml I or control buffer, 20 μl of a solution comprising [HEPES-buffered saline, 1.96 μg/ml prekallikrein (Calbiochem), 10 mM ZnCl2, 2.13 μg/ml high molecular weight kininogen (Calbiochem); ‘PK mix’ ], 10 μl Chromozyme-PK (Roche, 1 mg/ml aliquot) and 10 μl of a solution comprising 1 mM ZnCl2, HEPES-buffered saline and 4.76 μg/ml factor XII (Calbiochem); ‘FXII mix’. Nunc Immobilizer plates were blocked with PBS with 1% Tween20 for 1 hour at room temperature under constant motion. All reagents were kept on ice throughout preparation of the experiment. The factor XII activating capacity of ellagic acid (Sigma, E-2250, St. Louis, Mo., USA) or I (Cealb, Sanquin, Amsterdam, The Netherlands) alone, and combination thereof was determined in duplicate. After adding 10 μL of I solution or buffer and 10 μl of ellagic acid solution or buffer to the wells, 20 μL of PK mix was added to each well. Ten μL of kallikrein substrate Chromozyme PK was added to each well, followed by 10 μL of freshly prepared FXII mix. Final I and ellagic acid concentrations are 125 μg/ml and 50 μg/ml. Absorbance was measured at 405 nm at 37° C. for 3 hours with brief shaking every minute."}, "Aβ": {"biological_target": "T2, Aβ (Homo sapiens, UniProt P05067, E693Q)", "T2 construct": "Lyophilized human amyloid-β(1-40) with E22Q mutation ‘Dutch type’; purchased Peptide facility, Dutch Cancer Institute, Amsterdam; host or cells: synthetic peptide", "assay": "Binding of Aβ from solution to immobilized small compounds", "details": "Aβ 100 μg/ml", "procedure": "(§1) To test the ability of the twelve selected compounds (see Table 7) to bind to misfolded proteins, […] Greiner Microlon high binding plates, Nunc amino Immobilizer plates and Nunc Maxisorp plates. Compounds were coated in 100 mM NaHCO3 pH 9.6, 50 μl/well, 1 h at room temperature with agitation. As a control, wells were coated with buffer only. After blocking of the plates, wells were overlayed with solutions of 0.1/1/10 μg/ml Hb-AGE or 10/100 μg/ml Aβ, in binding buffer (PBS/0.1% Tween20). After washing, binding of Hb-AGE was assessed by overlaying wells with 1 μg/ml hybridoma antibody 4B5, which binds to glycations(^2), followed by RAMPO. Binding of Aβ was visualized using 500× diluted anti-Aβ antibodies (mouse antibody beta-amyloid Clone 6F/3D #M0872, lot 00003503, DAKOCytomation; β-amyloid (H-43) SC-9129, 200 μg/ml rabbit polyclonal IgG, Santa Cruz Biotechnology) and RAMPO/SWARPO in a 1:1 ratio. Finally, wells were overlayed with OPD/H2O2 solution, and H2SO4, before absorbance readings at 490 nm."}, "tPA": {"biological_target": "tPA (Homo sapiens, UniProt P00750)", "sequence (P00750 36-562)": "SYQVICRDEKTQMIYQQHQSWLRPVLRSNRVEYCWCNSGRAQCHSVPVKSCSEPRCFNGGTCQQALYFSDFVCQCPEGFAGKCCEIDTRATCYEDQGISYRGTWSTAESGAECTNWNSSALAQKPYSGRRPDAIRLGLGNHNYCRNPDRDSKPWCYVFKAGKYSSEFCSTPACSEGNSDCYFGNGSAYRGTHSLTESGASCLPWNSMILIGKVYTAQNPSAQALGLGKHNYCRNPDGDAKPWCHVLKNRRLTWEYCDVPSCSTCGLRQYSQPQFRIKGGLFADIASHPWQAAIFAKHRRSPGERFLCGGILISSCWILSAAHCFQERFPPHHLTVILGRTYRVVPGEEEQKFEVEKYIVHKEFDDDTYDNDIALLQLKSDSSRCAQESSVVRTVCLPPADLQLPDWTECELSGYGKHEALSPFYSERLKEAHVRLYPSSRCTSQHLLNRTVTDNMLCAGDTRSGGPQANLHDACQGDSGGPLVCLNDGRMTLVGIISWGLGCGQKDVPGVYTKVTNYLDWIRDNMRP", "assay": "tPA serine protease activity with OVA heated in the presence of compounds (substrate S-2765)", "format": "biochemical", "set-up": "purchased Boehringer Ingelheim Actilyse", "details": "OVA heated with 1 mg/ml compound, 80-, 160- or 320-fold diluted, 100 nM tPA", "procedure": "For this purpose, the influence of the compounds on heat-denaturation of OVA was analyzed (see above: Thioflavin T fluorescence measurements). Heated OVA at 1 mg/ml in PBS in the presence or absence of 1 mg/ml of the twelve compounds listed in Table 7 in PBS/DMSO (final DMSO concentration 1%) was used 80-fold or 160-fold or 320-fold diluted (final heated OVA concentration and compound concentration was 12.5 or 6.3 or 3.1 μg/ml; final DMSO concentration was 0.013% and 0.006% and 0.003%)."}, "Hb-AGE": {"biological_target": "T3, Hb-AGE (Homo sapiens, UniProt P68871+P69905)", "T3 construct": "purchased Sigma-Aldrich H7379", "T3 sequence (P69905 2-142 limits assumed)": "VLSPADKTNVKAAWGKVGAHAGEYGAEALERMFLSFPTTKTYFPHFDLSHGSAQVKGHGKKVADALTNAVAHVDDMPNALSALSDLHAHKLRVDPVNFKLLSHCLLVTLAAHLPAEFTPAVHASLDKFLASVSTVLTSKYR", "T3 sequence (P68871 2-147 limits assumed)": "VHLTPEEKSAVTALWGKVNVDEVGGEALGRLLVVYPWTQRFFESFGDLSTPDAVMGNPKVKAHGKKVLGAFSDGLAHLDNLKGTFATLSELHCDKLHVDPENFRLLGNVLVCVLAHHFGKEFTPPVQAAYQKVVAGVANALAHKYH", "assay": "Binding of Hb-AGE from solution to immobilized small compounds", "procedure": "as §1"}, "[1]": {"details": "information found on the www, search completed Spring 2006, cited from earlier work"}, "[2]": {"biological_target": "T4, Hb-AGE (glucose-6-phosphate modified human haemoglobin) (Homo sapiens, UniProt P68871+P69905)", "T4 construct": "purchased Sigma-Aldrich H7379", "T4 sequence (P69905 2-142 limits assumed)": "as the sequence (P69905 2-142 limits assumed) above", "T4 sequence (P68871 2-147 limits assumed)": "as the sequence (P68871 2-147 limits assumed) above", "assay": "ELISA binding of tPA to immobilized Hb-AGE, compounds co-incubated with tPA", "details": "compound mixed with tPA, control without compound = 100", "procedure": "The small compound library is depicted in Tables 4-5. […] Binding experiments were performed in single wells per compound, in a duplicate experiment. Binding data obtained with this duplicate experiment was averaged.\n• 1. […] Coat buffer in control wells. • 2. wash three times with wash buffer • 3. Block all wells with 300 μl 0.5*recommended concentration Roche blocking reagent for 30 minutes at room temperature, with agitation • 4. wash twice • 5. […] Incubate for 30 minutes at room temperature, with agitation • 7. wash five times with TBS/0.1% Tween20 • 8. […] Incubate for 30 minutes at room temperature, with agitation • 10. wash five times with TBS/0.1% Tween20 • 11. Fill wells with 3000× diluted horse raddish peroxidase-labeled polyclonal rabbit anti-mouse antibody (RAMPO, DAKOCytomation) • 12. Incubate for 20 minutes at room temperature, with agitation • 13. Wash five times with TBS/0.1% Tween20 • 14. Wash twice with PBS • 15. Stain with 100 μl TMB, stop with 50 μl 10% H2SO4 • 16. Read absorbance at 450 nm"}}, "note": "“Also recorded” adds a separate entry of the source. Where two headings read alike, the source gives them in different places.", "data": [{"compound": "O=c1oc2c(O)c(O)cc3c(=O)oc4c(O)c(O)cc1c4c23", "note": "[compound 117, Ellagic acid hydrate]", "values": [{"measurement": "activation of factor XII/kallikrein generation, compound combined with human serum albumin", "setting": "factor XII; 50 μg/ml ellagic acid with 125 μg/ml HSA, hydrate", "value": "potent activator of kallikrein generation; also recorded: kallikrein substrate Chromozyme-PK conversion is only observed when in addition 125 μg/ml HSA is included in the assay"}, {"measurement": "Activation of factor XII (summary)", "setting": "factor XII; summary Table 9", "value": "Activation of factor XII"}, {"measurement": "activation of factor XII by compound alone", "setting": "factor XII; listed as Ellagic acid, hydrate", "value": "factor XII/kallikrein activity comparable to control buffer"}, {"measurement": "activation of factor XII by compound alone", "setting": "factor XII; listed as ellagic acid, hydrate", "value": "poor activators of factor XII"}, {"measurement": "Signal (a.u.)", "setting": "Aβ; Nunc Maxisorp, coat 100 μg/ml", "value": 0.054, "unit": "a.u."}, {"measurement": "influence on tPA protease activity of OVA heated in the presence of compound", "setting": "tPA", "value": "Potentiation of tPA protease activity"}, {"measurement": "Signal (a.u.)", "setting": "Hb-AGE; Greiner Microlon, coat 100 μg/ml, Hb-AGE 10 μg/ml", "value": 0.13, "unit": "a.u."}, {"measurement": "Signal (a.u.)", "setting": "Hb-AGE; Nunc Maxisorp, coat 100 μg/ml, Hb-AGE 10 μg/ml", "value": 0.15, "unit": "a.u."}]}, {"compound": "COc1cc2c(cc1OC)-c1c(O)c(OC)cc3c1[C@H](C2)N(C)CC3", "note": "[compound 201, Thaliporphine, thalicmidine]", "values": [{"measurement": "Use or activity in vitro/in vivo", "setting": "[1]; thalicmidine", "value": "increased survival rate of LPS-treated mice; also recorded: suppression of TNFα, NO. and O^2− production; also recorded: stimulated splenocyte proliferation induced by LPS; also recorded: potent vasoconstrictor"}, {"measurement": "% tPA binding to Hb-AGE (co-incubation)", "setting": "[2]", "value": 30, "unit": "%"}, {"measurement": "Signal (a.u.)", "setting": "Hb-AGE; Nunc Maxisorp, coat 100 μg/ml, Hb-AGE 0.1 μg/ml", "value": 0.55, "unit": "a.u."}]}, {"compound": "COc1cc2c(cc1O)C[C@H]1c3c(cc(OC)c(O)c3-2)CCN1C", "note": "[compound 202, Isoboldine]", "values": [{"measurement": "Use or activity in vitro/in vivo", "setting": "[1]", "value": "potency to suppress LPS-induced proliferation in vitro; also recorded: potent antiplasmodial activity"}, {"measurement": "% tPA binding to Hb-AGE (co-incubation)", "setting": "[2]", "value": 250, "unit": "%"}, {"measurement": "Signal (a.u.)", "setting": "Aβ; Nunc Maxisorp, coat 100 μg/ml", "value": 0.11, "unit": "a.u."}, {"measurement": "Signal (a.u.)", "setting": "Aβ; Nunc amino Immobilizer, coat 1 μg/ml", "value": 0.08, "unit": "a.u."}, {"measurement": "Signal (a.u.)", "setting": "Hb-AGE; Nunc Maxisorp, coat 100 μg/ml, Hb-AGE 1 μg/ml", "value": 0.46, "unit": "a.u."}, {"measurement": "Signal (a.u.)", "setting": "Hb-AGE; Nunc amino Immobilizer, coat 1 μg/ml, Hb-AGE 10 μg/ml", "value": 0.20, "unit": "a.u."}]}]}
